Assay results: patent publication US12215140B2, “Method of stabilizing protein contained in specimen and solution for stabilizing protein contained in specimen” (EIKEN KAGAKU KABUSHIKI KAISHA, priority 2018, dated 2025)

System: hemoglobin-haptoglobin complex
Assay: Stability of hemoglobin (as hemoglobin-haptoglobin complex) in samples preserved at 37° C. in preservation solution containing 1 unit/L haptoglobin, Hb measured by latex agglutination method (Examples 1 to 7)
Design: species or system human
Details: for Hb concentration / Recovery ratio with respect to Hb concentration after 0 days: 37° C.
Method in brief: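 Latex agglutination (anti-human hemoglobin rabbit polyclonal latex) measured Hb in samples stored at 37 °C up to 21 days; values expressed as % recovery versus day 0. Preservation solution: HEPES 40 mmol/L pH 6.8, BSA 0.1%, NaN3 0.1%, haptoglobin 1 unit/L, phenylboronic acid 0–100 mmol/L, optional sugars; ~300 µg/L Hb, 0.5% feces or none.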

[1] = Feces 1, sugar 50 mmol/L + phenylboronic acid 15 mmol/L, 0 days
[2] = Feces 1, sugar 50 mmol/L + phenylboronic acid 15 mmol/L, 7 days
[3] = Feces 1, sugar 50 mmol/L + phenylboronic acid 15 mmol/L, 14 days
[4] = Feces 1, sugar 50 mmol/L + phenylboronic acid 15 mmol/L, 21 days
[5] = Feces 1, sugar 100 mmol/L + phenylboronic acid 15 mmol/L, 0 days
[6] = Feces 1, sugar 100 mmol/L + phenylboronic acid 15 mmol/L, 7 days
[7] = Feces 1, sugar 100 mmol/L + phenylboronic acid 15 mmol/L, 14 days
[8] = Feces 1, sugar 100 mmol/L + phenylboronic acid 15 mmol/L, 21 days
[9] = Feces 1, sugar 100 mmol/L, no phenylboronic acid, 0 days
[10] = Feces 1, sugar 100 mmol/L, no phenylboronic acid, 7 days
[11] = Feces 1, sugar 100 mmol/L, no phenylboronic acid, 14 days
[12] = Feces 1, sugar 100 mmol/L, no phenylboronic acid, 21 days
[13] = Feces 2, sugar 50 mmol/L + phenylboronic acid 15 mmol/L, 0 days
[14] = Feces 2, sugar 50 mmol/L + phenylboronic acid 15 mmol/L, 7 days
[15] = Feces 2, sugar 50 mmol/L + phenylboronic acid 15 mmol/L, 14 days
[16] = Feces 2, sugar 50 mmol/L + phenylboronic acid 15 mmol/L, 21 days
[17] = Feces 2, sugar 100 mmol/L + phenylboronic acid 15 mmol/L, 0 days
[18] = Feces 2, sugar 100 mmol/L + phenylboronic acid 15 mmol/L, 14 days
[19] = Feces 2, sugar 100 mmol/L + phenylboronic acid 15 mmol/L, 21 days
[20] = Feces 2, sugar 100 mmol/L, no phenylboronic acid, 0 days
[21] = Feces 2, sugar 100 mmol/L, no phenylboronic acid, 7 days
[22] = Feces 2, sugar 100 mmol/L, no phenylboronic acid, 14 days
[23] = Feces 2, sugar 100 mmol/L, no phenylboronic acid, 21 days
[24] = Feces 3, sugar 50 mmol/L + phenylboronic acid 15 mmol/L, 0 days
[25] = Feces 3, sugar 50 mmol/L + phenylboronic acid 15 mmol/L, 7 days
[26] = Feces 3, sugar 50 mmol/L + phenylboronic acid 15 mmol/L, 14 days
[27] = Feces 3, sugar 50 mmol/L + phenylboronic acid 15 mmol/L, 21 days
[28] = Feces 3, sugar 100 mmol/L + phenylboronic acid 15 mmol/L, 0 days
[29] = Feces 3, sugar 100 mmol/L + phenylboronic acid 15 mmol/L, 7 days
[30] = Feces 3, sugar 100 mmol/L + phenylboronic acid 15 mmol/L, 14 days
[31] = Feces 3, sugar 100 mmol/L + phenylboronic acid 15 mmol/L, 21 days
[32] = Feces 3, sugar 100 mmol/L, no phenylboronic acid, 0 days
[33] = Feces 3, sugar 100 mmol/L, no phenylboronic acid, 7 days
[34] = Feces 3, sugar 100 mmol/L, no phenylboronic acid, 14 days
[35] = Feces 3, sugar 100 mmol/L, no phenylboronic acid, 21 days
[36] = No feces, sugar 50 mmol/L + phenylboronic acid 15 mmol/L, 7 days
[37] = No feces, sugar 50 mmol/L + phenylboronic acid 15 mmol/L, 14 days
[38] = No feces, sugar 100 mmol/L + phenylboronic acid 15 mmol/L, 0 days
[39] = No feces, sugar 100 mmol/L + phenylboronic acid 15 mmol/L, 7 days
[40] = No feces, sugar 100 mmol/L + phenylboronic acid 15 mmol/L, 14 days
[41] = No feces, sugar 100 mmol/L + phenylboronic acid 15 mmol/L, 21 days
[42] = No feces, sugar 100 mmol/L, no phenylboronic acid, 7 days
[43] = No feces, sugar 100 mmol/L, no phenylboronic acid, 14 days
[44] = No feces, sugar 100 mmol/L, no phenylboronic acid, 21 days

OC[C@H]1O[C@@](CO)(O[C@H]2O[C@H](CO)[C@@H](O)[C@H](O)[C@H]2O)[C@@H](O)[C@@H]1O [Sucrose, sucrose]
Hb concentration [1]: 291 µg/L
Recovery ratio with respect to Hb concentration after 0 days [1]: 100%
Hb concentration [2]: 281 µg/L
Recovery ratio with respect to Hb concentration after 0 days [2]: 97%
Hb concentration [3]: 274 µg/L
Recovery ratio with respect to Hb concentration after 0 days [3]: 94%
Hb concentration [4]: 268 µg/L
Recovery ratio with respect to Hb concentration after 0 days [4]: 92%
Hb concentration [5]: 286 µg/L
Recovery ratio with respect to Hb concentration after 0 days [5]: 100%
Hb concentration [6]: 272 µg/L
Recovery ratio with respect to Hb concentration after 0 days [6]: 95%
Hb concentration [7]: 270 µg/L
Recovery ratio with respect to Hb concentration after 0 days [7]: 94%
Hb concentration [8]: 258 µg/L
Recovery ratio with respect to Hb concentration after 0 days [8]: 90%
Hb concentration [9]: 264 µg/L
Recovery ratio with respect to Hb concentration after 0 days [9]: 100%
Hb concentration [10]: 115 µg/L
Recovery ratio with respect to Hb concentration after 0 days [10]: 44%
Hb concentration [11]: 70 µg/L
Recovery ratio with respect to Hb concentration after 0 days [11]: 27%
Hb concentration [12]: 80 µg/L
Recovery ratio with respect to Hb concentration after 0 days [12]: 30%
Hb concentration [13]: 273 µg/L
Recovery ratio with respect to Hb concentration after 0 days [13]: 100%
Hb concentration [14]: 266 µg/L
Recovery ratio with respect to Hb concentration after 0 days [14]: 97%
Hb concentration [15]: 232 µg/L
Recovery ratio with respect to Hb concentration after 0 days [15]: 85%
Hb concentration [16]: 212 µg/L
Recovery ratio with respect to Hb concentration after 0 days [16]: 78%
Hb concentration [17]: 267 µg/L
Recovery ratio with respect to Hb concentration after 0 days [17]: 100%
Recovery ratio with respect to Hb concentration after 0 days (Feces 2, sugar 100 mmol/L + phenylboronic acid 15 mmol/L, 7 days): 96%
Hb concentration [18]: 236 µg/L
Recovery ratio with respect to Hb concentration after 0 days [18]: 88%
Hb concentration [19]: 219 µg/L
Recovery ratio with respect to Hb concentration after 0 days [19]: 82%
Hb concentration [20]: 270 µg/L
Recovery ratio with respect to Hb concentration after 0 days [20]: 100%
Hb concentration [21]: 96 µg/L
Recovery ratio with respect to Hb concentration after 0 days [21]: 36%
Hb concentration [22]: 49 µg/L
Recovery ratio with respect to Hb concentration after 0 days [22]: 18%
Hb concentration [23]: 31 µg/L
Recovery ratio with respect to Hb concentration after 0 days [23]: 11%
Hb concentration [24]: 286 µg/L
Recovery ratio with respect to Hb concentration after 0 days [24]: 100%
Hb concentration [25]: 234 µg/L
Recovery ratio with respect to Hb concentration after 0 days [25]: 82%
Hb concentration [26]: 209 µg/L
Recovery ratio with respect to Hb concentration after 0 days [26]: 73%
Hb concentration [27]: 195 µg/L
Recovery ratio with respect to Hb concentration after 0 days [27]: 68%
Hb concentration [28]: 272 µg/L
Recovery ratio with respect to Hb concentration after 0 days [28]: 100%
Hb concentration [29]: 230 µg/L
Recovery ratio with respect to Hb concentration after 0 days [29]: 85%
Hb concentration [30]: 201 µg/L
Recovery ratio with respect to Hb concentration after 0 days [30]: 74%
Hb concentration [31]: 187 µg/L
Recovery ratio with respect to Hb concentration after 0 days [31]: 69%
Hb concentration [32]: 267 µg/L
Recovery ratio with respect to Hb concentration after 0 days [32]: 100%
Hb concentration [33]: 89 µg/L
Recovery ratio with respect to Hb concentration after 0 days [33]: 33%
Hb concentration [34]: 55 µg/L
Recovery ratio with respect to Hb concentration after 0 days [34]: 21%
Hb concentration [35]: 40 µg/L
Recovery ratio with respect to Hb concentration after 0 days [35]: 15%
Recovery ratio with respect to Hb concentration after 0 days (No feces, sugar 50 mmol/L + phenylboronic acid 15 mmol/L, 0 days): 100%
Hb concentration [36]: 253 µg/L
Recovery ratio with respect to Hb concentration after 0 days [36]: 93%
Hb concentration [37]: 246 µg/L
Recovery ratio with respect to Hb concentration after 0 days [37]: 91%
Recovery ratio with respect to Hb concentration after 0 days (No feces, sugar 50 mmol/L + phenylboronic acid 15 mmol/L, 21 days): 95%
Hb concentration [38]: 267 µg/L
Recovery ratio with respect to Hb concentration after 0 days [38]: 100%
Hb concentration [39]: 247 µg/L
Recovery ratio with respect to Hb concentration after 0 days [39]: 93%
Hb concentration [40]: 241 µg/L
Recovery ratio with respect to Hb concentration after 0 days [40]: 90%
Hb concentration [41]: 260 µg/L
Recovery ratio with respect to Hb concentration after 0 days [41]: 97%
Recovery ratio with respect to Hb concentration after 0 days (No feces, sugar 100 mmol/L, no phenylboronic acid, 0 days): 100%
Hb concentration [42]: 228 µg/L
Recovery ratio with respect to Hb concentration after 0 days [42]: 93%
Hb concentration [43]: 223 µg/L
Recovery ratio with respect to Hb concentration after 0 days [43]: 91%
Hb concentration [44]: 222 µg/L
Recovery ratio with respect to Hb concentration after 0 days [44]: 91%
recovery ratio of hemoglobin in the sample (sugar 100 mmol/L further added to other arylboronic acids (3-CPBA, 3-HPBA, 3-APBA) 15 mmol/L, Feces 1, Feces 2, Feces 3): further improved
recovery ratio of hemoglobin in the samples containing fecal specimens (sugar 100 mmol/L, preservation solutions containing no phenylboronic acid): does not improve
recovery ratio of hemoglobin in the sample (sugar 50 or 100 mmol/L further added to phenylboronic acid 15 mmol/L, Feces 1, Feces 2, Feces 3): further improved
recovery ratio of hemoglobin in the samples containing feces (sugar added to phenylboronic acid 15 mmol/L, Feces 1, Feces 2, Feces 3): improved depending on the added concentration
